Source: PubChem BioAssay (NCI)
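Assay format: 96-well plates, 48-hour exposure. TGI is the concentration that stops growth completely.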

Tests used:
Experiment in all cases: NCI-60 cell line screen, 48 h
SN12C renal = system: SN12C renal
SF-295 CNS = system: SF-295 CNS
BT-549 breast = system: BT-549 breast
UO-31 renal = system: UO-31 renal
CAKI-1 renal = system: CAKI-1 renal
SK-MEL-2 melanoma = system: SK-MEL-2 melanoma
RPMI-8226 leukemia = system: RPMI-8226 leukemia
KM12 colon = system: KM12 colon
SK-MEL-5 melanoma = system: SK-MEL-5 melanoma
PC-3 prostate = system: PC-3 prostate
MDA-MB-435 = system: MDA-MB-435
SK-MEL-28 melanoma = system: SK-MEL-28 melanoma
OVCAR-4 ovarian = system: OVCAR-4 ovarian
UACC-257 melanoma = system: UACC-257 melanoma
RXF 393 renal = system: RXF 393 renal
IGROV1 ovarian = system: IGROV1 ovarian
SNB-19 CNS = system: SNB-19 CNS
CCRF-CEM leukemia = system: CCRF-CEM leukemia
786-0 renal = system: 786-0 renal
A549 NSCLC = system: A549 NSCLC
K-562 leukemia = system: K-562 leukemia
A498 renal = system: A498 renal
MALME-3M melanoma = system: MALME-3M melanoma
TK-10 renal = system: TK-10 renal
SK-OV-3 ovarian = system: SK-OV-3 ovarian
NCI-H460 lung = system: NCI-H460 lung
HCT-15 colon = system: HCT-15 colon
U251 CNS = system: U251 CNS
SW-620 colon = system: SW-620 colon
HT29 colon = system: HT29 colon
MOLT-4 leukemia = system: MOLT-4 leukemia
NCI-H226 lung = system: NCI-H226 lung
HOP-62 NSCLC = system: HOP-62 NSCLC
NCI-H522 lung = system: NCI-H522 lung
NCI-H23 lung = system: NCI-H23 lung
HOP-92 NSCLC = system: HOP-92 NSCLC
HCT-116 colon = system: HCT-116 colon
SNB-75 CNS = system: SNB-75 CNS
NCI/ADR-RES ovarian = system: NCI/ADR-RES ovarian
UACC-62 melanoma = system: UACC-62 melanoma
MDA-MB-231 breast = system: MDA-MB-231 breast
OVCAR-8 ovarian = system: OVCAR-8 ovarian
ACHN renal = system: ACHN renal
EKVX NSCLC = system: EKVX NSCLC
COLO 205 colon = system: COLO 205 colon
SF-268 CNS = system: SF-268 CNS
T-47D breast = system: T-47D breast
DU-145 prostate = system: DU-145 prostate
HS 578T breast = system: HS 578T breast
MDA-N = system: MDA-N
M14 melanoma = system: M14 melanoma
HCC-2998 colon = system: HCC-2998 colon
OVCAR-5 ovarian = system: OVCAR-5 ovarian
OVCAR-3 ovarian = system: OVCAR-3 ovarian
LOX IMVI melanoma = system: LOX IMVI melanoma
HL-60(TB) leukemia = system: HL-60(TB) leukemia
MCF7 breast = system: MCF7 breast
SF-539 CNS = system: SF-539 CNS

Work on COC(=O)C1(C(=O)OC)CC2=C(S(=O)(=O)c3ccccc3)C[C@H](S(=O)(=O)c3ccccc3)[C@H]2C1 yielded a TGI (SN12C renal) greater than 100 µM, a TGI (SF-295 CNS) greater than 100 µM and a TGI (BT-549 breast) greater than 100 µM. It also gave a TGI (UO-31 renal) greater than 100 µM, a TGI (CAKI-1 renal) greater than 100 µM and a TGI (SK-MEL-2 melanoma) greater than 100 µM. For the same compound, the TGI (RPMI-8226 leukemia) was greater than 100 µM, the TGI (KM12 colon) was greater than 100 µM and the TGI (SK-MEL-5 melanoma) was greater than 100 µM. For the same compound, the TGI (PC-3 prostate) was greater than 100 µM, the TGI (MDA-MB-435) was greater than 100 µM and the TGI (SK-MEL-28 melanoma) was greater than 100 µM. For the same compound, the TGI (OVCAR-4 ovarian) was greater than 100 µM, the TGI (UACC-257 melanoma) was greater than 100 µM and the TGI (RXF 393 renal) was 66.2 µM. The TGI (IGROV1 ovarian) was 49.9 µM, the TGI (SNB-19 CNS) was greater than 100 µM and the TGI (CCRF-CEM leukemia) was greater than 100 µM. For the same compound, the TGI (786-0 renal) was greater than 100 µM, the TGI (A549 NSCLC) was greater than 100 µM and the TGI (K-562 leukemia) was 58.5 µM. It also gave a TGI (A498 renal) greater than 100 µM, a TGI (MALME-3M melanoma) greater than 100 µM and a TGI (TK-10 renal) greater than 100 µM. The TGI (SK-OV-3 ovarian) was greater than 100 µM, the TGI (NCI-H460 lung) was greater than 100 µM and the TGI (HCT-15 colon) was greater than 100 µM. It also gave a TGI (U251 CNS) greater than 100 µM, a TGI (SW-620 colon) greater than 100 µM and a TGI (HT29 colon) greater than 100 µM. The TGI (MOLT-4 leukemia) was greater than 100 µM, the TGI (NCI-H226 lung) was greater than 100 µM and the TGI (HOP-62 NSCLC) was greater than 100 µM. It also gave a TGI (NCI-H522 lung) of 92.7 µM, a TGI (NCI-H23 lung) greater than 100 µM and a TGI (HOP-92 NSCLC) of 55.9 µM. For the same compound, the TGI (HCT-116 colon) was greater than 100 µM, the TGI (SNB-75 CNS) was 93.6 µM and the TGI (NCI/ADR-RES ovarian) was greater than 100 µM. For the same compound, the TGI (UACC-62 melanoma) was 71.6 µM, the TGI (MDA-MB-231 breast) was greater than 100 µM and the TGI (OVCAR-8 ovarian) was greater than 100 µM. The TGI (ACHN renal) was greater than 100 µM, the TGI (EKVX NSCLC) was greater than 100 µM and the TGI (COLO 205 colon) was greater than 100 µM. It also gave a TGI (SF-268 CNS) greater than 100 µM, a TGI (T-47D breast) of 92.6 µM and a TGI (DU-145 prostate) greater than 100 µM. It also gave a TGI (HS 578T breast) greater than 100 µM, a TGI (MDA-N) greater than 100 µM and a TGI (M14 melanoma) greater than 100 µM. For the same compound, the TGI (HCC-2998 colon) was 29.5 µM, the TGI (OVCAR-5 ovarian) was greater than 100 µM and the TGI (OVCAR-3 ovarian) was greater than 100 µM. The TGI (LOX IMVI melanoma) was greater than 100 µM.

Cc1c(-c2nc3ccccc3[nH]2)c(=O)n(-c2ccccc2)n1C gave a TGI (HL-60(TB) leukemia) greater than 100 µM, a TGI (SN12C renal) greater than 100 µM and a TGI (SF-295 CNS) greater than 100 µM. For the same compound, the TGI (BT-549 breast) was greater than 100 µM, the TGI (UO-31 renal) was greater than 100 µM and the TGI (CAKI-1 renal) was greater than 100 µM. The TGI (SK-MEL-2 melanoma) was greater than 100 µM, the TGI (RPMI-8226 leukemia) was greater than 100 µM and the TGI (KM12 colon) was greater than 100 µM. For the same compound, the TGI (SK-MEL-5 melanoma) was greater than 100 µM, the TGI (PC-3 prostate) was greater than 100 µM and the TGI (MDA-MB-435) was greater than 100 µM. For the same compound, the TGI (SK-MEL-28 melanoma) was greater than 100 µM, the TGI (OVCAR-4 ovarian) was greater than 100 µM and the TGI (UACC-257 melanoma) was greater than 100 µM. For the same compound, the TGI (RXF 393 renal) was greater than 100 µM, the TGI (IGROV1 ovarian) was greater than 100 µM and the TGI (SNB-19 CNS) was greater than 100 µM. The TGI (CCRF-CEM leukemia) was greater than 100 µM, the TGI (786-0 renal) was greater than 100 µM and the TGI (A549 NSCLC) was greater than 100 µM. It also gave a TGI (K-562 leukemia) greater than 100 µM, a TGI (MALME-3M melanoma) greater than 100 µM and a TGI (TK-10 renal) greater than 100 µM. It also gave a TGI (SK-OV-3 ovarian) greater than 100 µM, a TGI (MCF7 breast) greater than 100 µM and a TGI (NCI-H460 lung) greater than 100 µM. The TGI (HCT-15 colon) was greater than 100 µM, the TGI (U251 CNS) was greater than 100 µM and the TGI (SW-620 colon) was greater than 100 µM. The TGI (HT29 colon) was greater than 100 µM, the TGI (SF-539 CNS) was greater than 100 µM and the TGI (MOLT-4 leukemia) was greater than 100 µM. The TGI (NCI-H226 lung) was greater than 100 µM, the TGI (HOP-62 NSCLC) was greater than 100 µM and the TGI (NCI-H522 lung) was greater than 100 µM. It also gave a TGI (NCI-H23 lung) greater than 100 µM, a TGI (HOP-92 NSCLC) greater than 100 µM and a TGI (HCT-116 colon) greater than 100 µM. For the same compound, the TGI (SNB-75 CNS) was greater than 100 µM, the TGI (NCI/ADR-RES ovarian) was greater than 100 µM and the TGI (UACC-62 melanoma) was greater than 100 µM. It also gave a TGI (MDA-MB-231 breast) greater than 100 µM, a TGI (OVCAR-8 ovarian) greater than 100 µM and a TGI (ACHN renal) greater than 100 µM. The TGI (EKVX NSCLC) was greater than 100 µM, the TGI (COLO 205 colon) was greater than 100 µM and the TGI (SF-268 CNS) was greater than 100 µM. For the same compound, the TGI (T-47D breast) was greater than 100 µM, the TGI (DU-145 prostate) was greater than 100 µM and the TGI (HS 578T breast) was greater than 100 µM. It also gave a TGI (MDA-N) greater than 100 µM, a TGI (M14 melanoma) greater than 100 µM and a TGI (HCC-2998 colon) greater than 100 µM. It also gave a TGI (OVCAR-3 ovarian) greater than 100 µM and a TGI (LOX IMVI melanoma) greater than 100 µM.
